Reference: ChEMBL document CHEMBL5321255, “Sumatranins A-J: Lignans with Immunosuppressive Activity from Cleistanthus sumatranus” (J Nat Prod, 2023)

How the values were obtained:
[1] = Cytotoxicity against BALB/c mouse splenocytes incubated for 48 hrs by MTT assay; format: toxicity, cell-based, Splenocyte
Splenocyte [2] = test: Immunosuppressive activity in BALB/c mouse splenocytes assessed as inhibition of ConA-induced T cell proliferation by measuring [3H]-thymidine uptake by beta scintillation counter analysis; format: functional, cell-based
[3] = Selectivity index, ratio of CC50 for cytotoxicity against BALB/c mouse splenocyte to IC50 for immunosuppressive activity in BALB/c mouse splenocytes assessed as inhibition of ConA-induced T cell proliferation; format: cell-based; conditions: read-out: Ratio CC50/IC50
Splenocyte [4] = test: Immunosuppressive activity in BALB/c mouse splenocytes assessed as inhibition of LPS-induced B cell proliferation by measuring [3H]-thymidine uptake by beta scintillation counter analysis; format: functional, cell-based
[5] = Selectivity index, ratio of CC50 for cytotoxicity against BALB/c mouse splenocyte to IC50 for immunosuppressive activity in BALB/c mouse splenocytes assessed as inhibition of LPS-induced B cell proliferation; format: cell-based; conditions: read-out: Ratio CC50/IC50

Compound	CC50 at 48 h [1] [µM]	IC50 (Splenocyte [2]) [µM]	selectivity ratio [3]	IC50 (Splenocyte [4]) [µM]	selectivity ratio [5]
Oc1cc2c(cc1C[C@H]1CO[C@@H]3Oc4cc5c(cc4C[C@H]13)OCO5)OCO2	90.3	51.7	1.7	32.8	2.8
O=C(Cc1ccc2c(c1)OCO2)[C@H](CO)Cc1ccc2c(c1)OCO2	68	18	3.8	3.9	17.5
OC[C@H](Cc1ccc2c(c1)OCO2)[C@](O)(CO)Cc1cc2c(cc1O)OCO2	99.3	27.3	3.6	18.2	–
OC[C@H](Cc1cc2c(cc1O)OCO2)[C@](O)(CO)Cc1cc2c(cc1O)OCO2	108	56.2	1.9	26.7	4.1
COc1cc(C[C@H]2CO[C@@H]3Oc4cc5c(cc4C[C@H]23)OCO5)ccc1O	40.1	10.1	4	2.7	14.9
COc1cc2c(cc1O)O[C@H]1OC[C@H](Cc3cc4c(cc3O)OCO4)[C@H]1C2	82.5	14.8	5.6	12.1	6.8
